Measurements reported in PubChem BioAssay (NCI).
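Each compound was tested at five concentrations against cells in 96-well plates for 48 hours. GI50 is the concentration that inhibits growth by half. TGI is the concentration that stops growth completely.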

Experiments:
Experiment in all cases: NCI-60 cell line screen, 48 h
LOX IMVI melanoma = system: LOX IMVI melanoma
KM12 colon = system: KM12 colon
TK-10 renal = system: TK-10 renal
OVCAR-3 ovarian = system: OVCAR-3 ovarian
SF-295 CNS = system: SF-295 CNS
COLO 205 colon = system: COLO 205 colon
HT29 colon = system: HT29 colon
HL-60(TB) leukemia = system: HL-60(TB) leukemia
EKVX NSCLC = system: EKVX NSCLC
MDA-MB-231 breast = system: MDA-MB-231 breast
RPMI-8226 leukemia = system: RPMI-8226 leukemia
HOP-62 NSCLC = system: HOP-62 NSCLC
SNB-75 CNS = system: SNB-75 CNS
HCT-116 colon = system: HCT-116 colon
DU-145 prostate = system: DU-145 prostate
SK-MEL-2 melanoma = system: SK-MEL-2 melanoma
SF-268 CNS = system: SF-268 CNS
M14 melanoma = system: M14 melanoma
786-0 renal = system: 786-0 renal
NCI-H522 lung = system: NCI-H522 lung
T-47D breast = system: T-47D breast
SK-MEL-5 melanoma = system: SK-MEL-5 melanoma
HOP-92 NSCLC = system: HOP-92 NSCLC
CCRF-CEM leukemia = system: CCRF-CEM leukemia
MDA-MB-435 = system: MDA-MB-435
NCI-H226 lung = system: NCI-H226 lung
SNB-19 CNS = system: SNB-19 CNS
HS 578T breast = system: HS 578T breast
HCT-15 colon = system: HCT-15 colon
UO-31 renal = system: UO-31 renal
OVCAR-8 ovarian = system: OVCAR-8 ovarian
CAKI-1 renal = system: CAKI-1 renal
PC-3 prostate = system: PC-3 prostate
NCI-H460 lung = system: NCI-H460 lung
MOLT-4 leukemia = system: MOLT-4 leukemia
K-562 leukemia = system: K-562 leukemia
SR leukemia = system: SR leukemia
SK-MEL-28 melanoma = system: SK-MEL-28 melanoma
NCI/ADR-RES ovarian = system: NCI/ADR-RES ovarian
SW-620 colon = system: SW-620 colon
A498 renal = system: A498 renal
SK-OV-3 ovarian = system: SK-OV-3 ovarian
A549 NSCLC = system: A549 NSCLC
HCC-2998 colon = system: HCC-2998 colon
IGROV1 ovarian = system: IGROV1 ovarian
NCI-H23 lung = system: NCI-H23 lung
OVCAR-5 ovarian = system: OVCAR-5 ovarian
OVCAR-4 ovarian = system: OVCAR-4 ovarian
ACHN renal = system: ACHN renal
MALME-3M melanoma = system: MALME-3M melanoma
RXF 393 renal = system: RXF 393 renal
BT-549 breast = system: BT-549 breast
UACC-257 melanoma = system: UACC-257 melanoma
UACC-62 melanoma = system: UACC-62 melanoma
U251 CNS = system: U251 CNS
SF-539 CNS = system: SF-539 CNS
SN12C renal = system: SN12C renal
MCF7 breast = system: MCF7 breast

N#Cc1ccc(Oc2nc3ccccc3nc2C(=O)O)cc1
TGI (LOX IMVI melanoma): > 100 µM
TGI (KM12 colon): > 100 µM
TGI (TK-10 renal): > 100 µM
TGI (OVCAR-3 ovarian): > 100 µM
TGI (SF-295 CNS): > 100 µM
TGI (COLO 205 colon): > 100 µM
TGI (HT29 colon): > 100 µM
TGI (HL-60(TB) leukemia): > 100 µM
TGI (EKVX NSCLC): > 100 µM
TGI (MDA-MB-231 breast): > 100 µM
TGI (RPMI-8226 leukemia): > 100 µM
TGI (HOP-62 NSCLC): > 100 µM
TGI (SNB-75 CNS): > 100 µM
TGI (HCT-116 colon): > 100 µM
TGI (DU-145 prostate): > 100 µM
TGI (SK-MEL-2 melanoma): > 100 µM
TGI (SF-268 CNS): > 100 µM
TGI (M14 melanoma): > 100 µM
TGI (786-0 renal): > 100 µM
TGI (NCI-H522 lung): > 100 µM
TGI (T-47D breast): > 100 µM
TGI (SK-MEL-5 melanoma): > 100 µM
TGI (HOP-92 NSCLC): > 100 µM
TGI (CCRF-CEM leukemia): > 100 µM
TGI (MDA-MB-435): > 100 µM
TGI (NCI-H226 lung): > 100 µM
TGI (SNB-19 CNS): > 100 µM
TGI (HS 578T breast): > 100 µM
TGI (HCT-15 colon): > 100 µM
TGI (UO-31 renal): > 100 µM
TGI (OVCAR-8 ovarian): > 100 µM
TGI (CAKI-1 renal): > 100 µM
TGI (PC-3 prostate): > 100 µM
TGI (NCI-H460 lung): > 100 µM
TGI (MOLT-4 leukemia): > 100 µM
TGI (K-562 leukemia): > 100 µM
TGI (SR leukemia): > 100 µM
TGI (SK-MEL-28 melanoma): > 100 µM
TGI (NCI/ADR-RES ovarian): > 100 µM
TGI (SW-620 colon): > 100 µM
TGI (A498 renal): > 100 µM
TGI (SK-OV-3 ovarian): > 100 µM
TGI (A549 NSCLC): > 100 µM
TGI (HCC-2998 colon): > 100 µM
TGI (IGROV1 ovarian): > 100 µM
TGI (NCI-H23 lung): > 100 µM
TGI (OVCAR-5 ovarian): > 100 µM
TGI (OVCAR-4 ovarian): > 100 µM
TGI (ACHN renal): > 100 µM
TGI (MALME-3M melanoma): > 100 µM
TGI (RXF 393 renal): > 100 µM
TGI (BT-549 breast): > 100 µM
TGI (UACC-257 melanoma): > 100 µM
TGI (UACC-62 melanoma): > 100 µM
TGI (U251 CNS): > 100 µM

COc1ccc(/C=C2\N=C(SC)N(C)C2=O)cc1
TGI (LOX IMVI melanoma): > 100 µM
TGI (TK-10 renal): > 100 µM
TGI (OVCAR-3 ovarian): > 100 µM
TGI (COLO 205 colon): > 100 µM
TGI (HT29 colon): > 100 µM
TGI (HL-60(TB) leukemia): > 100 µM
TGI (MDA-MB-231 breast): > 100 µM
TGI (RPMI-8226 leukemia): > 100 µM
TGI (HOP-62 NSCLC): > 100 µM
TGI (SNB-75 CNS): > 100 µM
TGI (HCT-116 colon): > 100 µM
TGI (DU-145 prostate): > 100 µM
TGI (SK-MEL-2 melanoma): > 100 µM
TGI (SF-268 CNS): > 100 µM
TGI (M14 melanoma): > 100 µM
TGI (786-0 renal): > 100 µM
TGI (T-47D breast): > 100 µM
TGI (SK-MEL-5 melanoma): > 100 µM
TGI (HOP-92 NSCLC): > 100 µM
TGI (CCRF-CEM leukemia): > 100 µM
TGI (MDA-MB-435): > 100 µM
TGI (NCI-H226 lung): > 100 µM
TGI (SNB-19 CNS): > 100 µM
TGI (HS 578T breast): 90.4 µM
TGI (HCT-15 colon): > 100 µM
TGI (UO-31 renal): > 100 µM
TGI (OVCAR-8 ovarian): > 100 µM
TGI (SF-539 CNS): > 100 µM
TGI (PC-3 prostate): > 100 µM
TGI (NCI-H460 lung): > 100 µM
TGI (SN12C renal): > 100 µM
TGI (K-562 leukemia): > 100 µM
TGI (SK-MEL-28 melanoma): > 100 µM
TGI (NCI/ADR-RES ovarian): > 100 µM
TGI (SW-620 colon): > 100 µM
TGI (A498 renal): > 100 µM
TGI (SK-OV-3 ovarian): > 100 µM
TGI (MCF7 breast): > 100 µM
TGI (A549 NSCLC): > 100 µM
TGI (IGROV1 ovarian): > 100 µM
TGI (NCI-H23 lung): > 100 µM
TGI (OVCAR-5 ovarian): > 100 µM
TGI (OVCAR-4 ovarian): > 100 µM
TGI (ACHN renal): > 100 µM
TGI (RXF 393 renal): > 100 µM
TGI (BT-549 breast): > 100 µM
TGI (UACC-257 melanoma): > 100 µM
TGI (UACC-62 melanoma): > 100 µM
TGI (U251 CNS): > 100 µM

CN1C(=O)/C(=C/c2c(Cl)[nH]c3ccccc23)c2ccccc21
GI50 (LOX IMVI melanoma): 43.3 µM
TGI (LOX IMVI melanoma): > 100 µM
GI50 (KM12 colon): 2.05 µM
TGI (KM12 colon): 10.1 µM
GI50 (TK-10 renal): 14 µM
TGI (TK-10 renal): 46.2 µM
GI50 (OVCAR-3 ovarian): 22.6 µM
TGI (OVCAR-3 ovarian): 58.7 µM
GI50 (SF-295 CNS): 25.9 µM
TGI (SF-295 CNS): 85.5 µM
GI50 (COLO 205 colon): 18.1 µM
TGI (COLO 205 colon): 34.9 µM
GI50 (HT29 colon): 25.5 µM
TGI (HT29 colon): 98.5 µM
GI50 (HL-60(TB) leukemia): 32.6 µM
TGI (HL-60(TB) leukemia): 93.4 µM
GI50 (EKVX NSCLC): 75.2 µM
TGI (EKVX NSCLC): > 100 µM
GI50 (MDA-MB-231 breast): 39 µM
TGI (MDA-MB-231 breast): > 100 µM
GI50 (RPMI-8226 leukemia): 24.1 µM
TGI (RPMI-8226 leukemia): > 100 µM
GI50 (HOP-62 NSCLC): 31.3 µM
TGI (HOP-62 NSCLC): > 100 µM
GI50 (HCT-116 colon): 25.9 µM
TGI (HCT-116 colon): 87.8 µM
GI50 (DU-145 prostate): 89.5 µM
TGI (DU-145 prostate): > 100 µM
GI50 (SK-MEL-2 melanoma): 45.1 µM
TGI (SK-MEL-2 melanoma): > 100 µM
GI50 (SF-268 CNS): 66.7 µM
TGI (SF-268 CNS): > 100 µM
GI50 (M14 melanoma): 19.8 µM
TGI (M14 melanoma): 65.8 µM
GI50 (786-0 renal): 32.4 µM
TGI (786-0 renal): > 100 µM
GI50 (NCI-H522 lung): 21.4 µM
TGI (NCI-H522 lung): 80.1 µM
GI50 (T-47D breast): 22.5 µM
TGI (T-47D breast): 71.2 µM
GI50 (SK-MEL-5 melanoma): 14.6 µM
TGI (SK-MEL-5 melanoma): 51.2 µM
GI50 (HOP-92 NSCLC): 37 µM
TGI (HOP-92 NSCLC): > 100 µM
GI50 (CCRF-CEM leukemia): 29 µM
TGI (CCRF-CEM leukemia): > 100 µM
GI50 (MDA-MB-435): 23.8 µM
TGI (MDA-MB-435): 59.9 µM
GI50 (NCI-H226 lung): 48.3 µM
TGI (NCI-H226 lung): > 100 µM
GI50 (SNB-19 CNS): 35.4 µM
TGI (SNB-19 CNS): > 100 µM
GI50 (HS 578T breast): 28.9 µM
TGI (HS 578T breast): 72.9 µM
GI50 (HCT-15 colon): 34.1 µM
TGI (HCT-15 colon): > 100 µM
GI50 (UO-31 renal): 37.1 µM
TGI (UO-31 renal): > 100 µM
GI50 (OVCAR-8 ovarian): 63.4 µM
TGI (OVCAR-8 ovarian): > 100 µM
GI50 (SF-539 CNS): 33 µM
TGI (SF-539 CNS): 75.6 µM
GI50 (CAKI-1 renal): 29.8 µM
TGI (CAKI-1 renal): 89.5 µM
GI50 (PC-3 prostate): 29.5 µM
TGI (PC-3 prostate): > 100 µM
GI50 (NCI-H460 lung): 46.7 µM
TGI (NCI-H460 lung): > 100 µM
GI50 (SN12C renal): 77.2 µM
TGI (SN12C renal): > 100 µM
GI50 (MOLT-4 leukemia): 41.8 µM
TGI (MOLT-4 leukemia): > 100 µM
GI50 (SK-MEL-28 melanoma): 35 µM
TGI (SK-MEL-28 melanoma): > 100 µM
GI50 (NCI/ADR-RES ovarian): 25.5 µM
TGI (NCI/ADR-RES ovarian): 61.2 µM
GI50 (SW-620 colon): 35.8 µM
TGI (SW-620 colon): > 100 µM
GI50 (SK-OV-3 ovarian): 25.8 µM
TGI (SK-OV-3 ovarian): 67.1 µM
GI50 (MCF7 breast): 53.7 µM
TGI (MCF7 breast): > 100 µM
GI50 (A549 NSCLC): 79.7 µM
TGI (A549 NSCLC): > 100 µM
GI50 (IGROV1 ovarian): 37.6 µM
TGI (IGROV1 ovarian): > 100 µM
GI50 (NCI-H23 lung): 38.2 µM
TGI (NCI-H23 lung): > 100 µM
GI50 (OVCAR-5 ovarian): 55.9 µM
TGI (OVCAR-5 ovarian): > 100 µM
GI50 (OVCAR-4 ovarian): 52.3 µM
TGI (OVCAR-4 ovarian): > 100 µM
GI50 (ACHN renal): 32.9 µM
TGI (ACHN renal): > 100 µM
GI50 (MALME-3M melanoma): 25.5 µM
TGI (MALME-3M melanoma): > 100 µM
GI50 (RXF 393 renal): 53.4 µM
TGI (RXF 393 renal): > 100 µM
GI50 (BT-549 breast): 37.4 µM
TGI (BT-549 breast): 94.3 µM
GI50 (UACC-257 melanoma): > 100 µM
TGI (UACC-257 melanoma): > 100 µM
GI50 (UACC-62 melanoma): 37.4 µM
TGI (UACC-62 melanoma): > 100 µM
GI50 (U251 CNS): 40.4 µM
TGI (U251 CNS): > 100 µM
